# Several values for one entry are separate records, joined by “and”; a condition that tells them apart may be missing. Equal values may be shown once.
# Columns and labels:
# [1] = test system: collagen plus epinephrine induced pulmonary thromboembolism; assay: Collagen-epinephrine induced pulmonary thromboembolism in mice; assay type: in vivo
# Procedure: To assess the antithrombotic efficacy of compounds, mice were grouped into vehicle, aspirin and compound treated groups, and each group included ten animals. Pulmonary thromboembolism was induced by injecting a mixture of collagen (150 μg/ml) and adrenaline (50 μg/ml) into the tail vein to achieve final doses of collagen (1.5 mg/kg) and adrenaline (0.5 mg/kg) to induce hind limb paralysis or death.^11, 12 Number of test animals killed or paralyzed were evaluated (death/paralysis were employed as endpoint to evaluate antithrombotic agents). The percent protection was calculated by taking the ratio of number of test animals killed or paralyzed to that of total tested animals. Results have been reported as percentage protection, which represents protection against collagen and epinephrine induced thromboembolism and expressed as;
# Percent Protection=[1−(Ptest/Pcontrol)]×100
# Where, Ptest is the number of animals paralyzed/dead in test compound-treated group, and Pcontrol is the total number of animals paralyzed/dead in vehicle treated group. The percent protection refers to the number of animals in compound treated group that were prevented from paralysis/death.
# [2] = test system: ferric chloride induced arterial thrombosis; assay: FeCl3 induced carotid artery thrombosis in mice; assay type: in vivo; details: 1d 4 hr after oral administration, control 9.5±0.4 min
# Procedure: Male Swiss albino mice were anesthetized byurethane (1.25 g/kg, i.p.). The carotid artery was carefully dissected and a pulsed Doppler Probe (LDF 100C, BioPac, USA) was placed around it to record the blood flow velocity and patency of the blood vessels. The carotid artery thrombosis was induced by FeCl3 as follows: a square (1×0.5 mm) of Whatman Chromatography paper was immersed in 10% FeCl3 solution for 5 min and placed on the carotid artery as described earlier. (Kurz K D, et al., Thromb Res 1990; 60(4):269-80; Surin W R et al J Pharmacol Toxicol Methods. 2010; 61(3):287-91) Thrombosis was monitored as the reduction in carotid artery blood flow. The time at which the blood-flow velocity was decreased to zero was recorded as the time to occlusion (TTO) of the carotid artery.
# human platelets = assay: Collagen induced platelet aggregation in human platelets (in vitro); assay type: cell-based; details: compound concentration 30 μM, n = 3; for inhibition at 30 µM: Homo sapiens, Platelet
# [3] = Mus musculus, po, 1 h, read-out: Protection (%)
SMILES,"inhibition in vivo at 30 µM, 30 µmol/kg [1, 3] [%]",inhibition at 30 µM (human platelets) [%],further results
"CC(=O)Oc1ccccc1C(=O)O [Aspirin, reference compound]",,,"inhibition in vivo at 170 µM, 170 µmol/kg [1, 3]: 40%; Protection (%) ([1]; mice, Aspirin at 170 μm (text: 170 μM/kg)): 40 (at 170 μm) % and 40 (at %"
"COC(=O)[C@H](c1ccccc1Cl)N1CCc2sccc2C1 [Clopidogrel, reference compound]",,,time to occlusion (TTO) of carotid artery [2]: ≤ 23 ± 0.9 min
"CC(C)(C)OC(=O)N1CC2CC(C1)CN(C(=O)[C@@H]1CCC(=O)N1Cc1ccccc1)C2 [Compound 1a, 7-(1-Benzyl-5-oxo-pyrrolidine-2-carbonyl)-3,7-diaza-bicyclo[3.3.1]nonane-3-carboxylic acid tert-butyl ester]",40,6 ± 14,
"CC(C)(C)OC(=O)N1CC2CC(C1)CN(C(=O)[C@@H]1CCC(=O)N1Cc1ccccc1Br)C2 [Compound 1b, 7-[1-(2-Bromo-benzyl)-5-oxo-pyrrolidine-2-carbonyl]-3,7-diaza-bicyclo[3.3.1]nonane-3-carboxylic acid tert-butyl ester]",50,,Inhibition (%) of collagen induced platelet aggregation (human platelets): Ns
"O=C([C@@H]1CCC(=O)N1Cc1ccccc1)N1CC2CC(CN(Cc3ccccc3)C2)C1 [Compound 1c, 1-Benzyl-5-(7-benzyl-3,7-diaza-bicyclo[3.3.1]nonane-3-carbonyl)-pyrrolidin-2-one]",30,44 ± 13,
"Cc1ccc(CN2C(=O)CC[C@H]2C(=O)N2CC3CC(CN(C(=O)OC(C)(C)C)C3)C2)cc1 [Compound 1e, 7-[1-(4-Methyl-benzyl)-5-oxo-pyrrolidine-2-carbonyl]-3,7-diaza-bicyclo[3.3.1]nonane-3-carboxylic acid tert-butyl ester]",40,25 ± 9,
"Cc1ccc(CN2C(=O)CC[C@H]2C(=O)N2CC3CC(CN(Cc4ccccc4)C3)C2)cc1 [Compound 1f, 5-(7-Benzyl-3,7-diaza-bicyclo[3.3.1]nonane-3-carbonyl)-1-(4-methyl-benzyl)-pyrrolidin-2-one]",25,7 ± 7,
"O=C([C@@H]1CCC(=O)N1Cc1c(Cl)cccc1Cl)N1CC2CC(CN(Cc3ccccc3)C2)C1 [Compound 1g, (5S)-5-(7-benzyl-3,7-diazabicyclo[3.3.1]nonane-3-carbonyl)-1-(2,6-dichlorobenzyl)pyrrolidin-2-one]",40,57 to 86,
O=C([C@@H]1CCC(=O)N1Cc1ccc(Cl)cc1)N1CC2CC(CN(Cc3ccccc3)C2)C1 [Compound 1h],30,57 to 86,
"Cc1ccc(S(=O)(=O)N2C(=O)CC[C@H]2C(=O)N2CC3CC(CN(Cc4ccccc4)C3)C2)cc1 [Compound 1i, (5S)-5-(7-benzyl-3,7-diazabicyclo[3.3.1]nonane-3-carbonyl)-1-tosylpyrrolidin-2-one]",30,29 ± 1,
"CC(C)(C)OC(=O)N1CC2CC(C1)CN(C(=O)[C@@H]1CCC(=O)N1Cc1ccc(C#N)cc1)C2 [Compound 1j, tert-butyl-7-((S)-1-(4-cyanobenzyl)-5-oxopyrrolidine-2-carbonyl)3,7diazabicyclo[3.3.1]nonane-3-carboxylate]",55,11 ± 3,
"CC(C)(C)OC(=O)N1CC2CC(C1)CN(C(=O)[C@@H]1CCC(=O)N1Cc1ccc(Cl)cc1)C2 [Compound 1k, tert-butyl 7-((S)-1-(4-chlorobenzyl)-5-oxopyrrolidine-2-carbonyl)-3,7-diazabicyclo [3.3.1]nonane-3-carboxylate]",30,6 ± 11,
"CC(C)(C)OC(=O)N1CC2CC(C1)CN(C(=O)[C@@H]1CCC(=O)N1Cc1c(Cl)cccc1Cl)C2 [Compound 1l, tert-butyl 7-((S)-1-(2,6-dichlorobenzyl)-5-oxopyrrolidine-2-carbonyl)-3,7-diazabicyclo [3.3.1]nonane-3-carboxylate]",30,3 ± 3,
"COc1ccc(CN2C(=O)CC[C@H]2C(=O)N2CC3CC(CN(C(=O)OC(C)(C)C)C3)C2)cc1 [Compound 1m, tert-butyl-7-((S)-1-(4-methoxybenzyl)-5-oxopyrrolidine-2-carbonyl)-3,7-diazabicyclo[3.3.1]nonane-3-carboxylate]",45,10 ± 3,
"O=C([C@@H]1CCC(=O)N1Cc1ccc(Br)cc1)N1CC2CC(CN(Cc3ccccc3)C2)C1 [Compound 1o, (5S)-5-(7-(4-benzyl)-3,7-diazabicyclo[3.3.1]nonane-3-carbonyl)-1-(4-bromobenzyl)pyrrolidin-2-one]",40,57 to 86,
COc1ccc(CN2C(=O)CC[C@H]2C(=O)N2CC3CC(CN(Cc4ccccc4)C3)C2)cc1 [Compound 1p],30,10 ± 4,
"O=C(c1ccccc1)N1CC2CC(C1)CN(C(=O)[C@@H]1CCC(=O)N1Cc1ccccc1Br)C2 [Compound 1q, 5-(7-Benzoyl-3,7-diaza-bicyclo[3.3.1]nonane-3-carbonyl)-1-(2-bromo-benzyl)-pyrrolidin-2-one]",60,25.6 ± 3.55,
"Cc1ccc(S(=O)(=O)N2CC3CC(CN(C(=O)[C@@H]4CCC(=O)N4Cc4ccccc4Br)C3)C2)cc1 [Compound 1r, 1-(2-Bromo-benzyl)-5-[7-(toluene-4-sulphonyl)-3,7-diaza-bicyclo[3.3.1]nonane-3-carbonyl]-pyrrolidin-2-one]",55,16.8 ± 5.66,
"Cc1ccc(CN2C(=O)CC[C@H]2C(=O)N2CC3CC(CN(C(=O)c4ccccc4)C3)C2)cc1 [Compound 1s, 5-(7-Benzoyl-3,7-diaza-bicyclo[3.3.1]nonane-3-carbonyl)-1-(4-methyl-benzyl)-pyrrolidin-2-one]",40,20.5 ± 7.5,
"Cc1ccc(CN2C(=O)CC[C@H]2C(=O)N2CC3CC(C2)CN(S(=O)(=O)c2ccc(C)cc2)C3)cc1 [Compound 1t, 1-(4-Methyl-benzyl)-5-[7-(toluene-4-sulphonyl)-3,7-diaza-bicyclo[3.3.1]nonane-3-carbonyl]-pyrrolidin-2-one]",40,37.5 ± 10.5,
"Cc1ccc(CN2C(=O)CC[C@H]2C(=O)N2CC3CC(CN(Cc4ccccc4Br)C3)C2)cc1 [Compound 1u, (5S)-5-(2-bromobenzyl-3,7-diazabicyclo[3.3.1]nonane-3-carbonyl)-1-(4-methylbenzyl)pyrrolidin-2-one]",30,57 to 86,
"Cc1ccc(CN2C(=O)CC[C@H]2C(=O)N2CC3CC(CN(Cc4ccc(Br)cc4)C3)C2)cc1 [Compound 1v, (5S)-5-(7-(4-bromobenzyl)-3,7-diazabicyclo[3.3.1]nonane-3-carbonyl)-1-(4-methylbenzyl)pyrrolidin-2-one]",50,57 to 86,
"Cc1ccc(CN2C(=O)CC[C@H]2C(=O)N2CC3CC(CN(Cc4ccc(Cl)cc4)C3)C2)cc1 [Compound 1w, (5S)-5-(7-(4-chlorobenzyl)-3,7-diazabicyclo[3.3.1]nonane-3-carbonyl)-1-(4-methylbenzyl)pyrrolidin-2-one]",35,57 to 86,
"CC(C)[C@H](NC(=O)OCc1ccccc1)C(=O)N1CC2CC(CN(Cc3ccccc3)C2)C1 [Compound 1x, Benzyl(2S)-1-(7-benzyl-3,7-diazabicyclo[3.3.1]nonan-3-yl)-3-methyl-1-oxobutan-2-yl carbamate]",20,18 ± 4,
"O=C(N[C@@H](Cc1ccccc1)C(=O)N1CC2CC(CN(Cc3ccccc3)C2)C1)OCc1ccccc1 [Compound 1y, Benzyl(2S)-1-(7-benzyl-3,7-diazabicyclo[3.3.1]nonan-3-yl)-1-oxo-3-phenylpropan-2-yl carbamate]",55,22 ± 5,
"CC(C)C[C@H](NC(=O)OCc1ccccc1)C(=O)N1CC2CC(CN(Cc3ccccc3)C2)C1 [Compound 1z, Benzyl(2S)-1-(7-benzyl-3,7-diazabicyclo[3.3.1]nonan-3-yl)-4-methyl-1-oxopentan-2-ylcarbamate]",40,12 ± 10,

# Reference: patent US20160214983A1, “3,7-DIAZABICYCLO[3.3.1]NONANE CARBOXAMIDES AS ANTITHROMBOTIC AGENTS” (COUNCIL OF SCIENTIFIC & INDUSTRIAL RESEARCH, priority 2013, published 2016)
